The text below walks through data of patent publication US8664226B2, “Compound having 3-heteroarylpyrimidin-4-(3H)-one structure and pharmaceutical preparation containing same” (Kowa Company, Ltd., priority 2009, dated 2014).

One assay addresses T1, human PPARγ2 (Homo sapiens, UniProt P37231).
T1 construct: the amino acids 182 to 505 of human PPARγ2; expressed in transfected cells; host or cells: COS7 cells
Put plainly: PPARγ activation activity, Gal4 chimera luciferase transfection assay using COS7 cells. The assay is classed as cell-based. To be noted: for EC50: Gal4-human PPARγ2 LBD chimera, luciferase reporter, 16 hours; for Emax: COS-7, 16 h, maximum activity strength relative to the maximum activity of rosiglitazone, read-out: % MAX vs Rosiglitazone; for maximum activity compared with telmisartan: maximum PPARγ activity, telmisartan 30 to 50% of rosiglitazone under the same condition. The method, then: The agonistic activity of the compounds of the invention on PPARγ was measured based on the transfection assay using COS7 cells (DS Pharma Biomedical Co., Ltd., Osaka, Japan), which are the cell line derived from the kidney of the African green monkey. COS7 cells were cultured under 5% CO2 concentration, and DMEM medium containing 10% fetal bovine serum, glutamic acid, and antibiotics was used as a medium.
As an expression vector, a chimera in which DNA binding domain of Gal4, which is a yeast transcription factor, and ligand binding domain of human PPAR^γ2 are fused, i.e., a fused product between the amino acids 1 to 147 of Gal4 transcription factor and the amino acids 182 to 505 of human PPARγ2, was used. Furthermore, as a reporter vector, a firefly luciferase containing five copies of Gal4 recognition sequence in the promoter region was used. Plasmid transfection to the cells was performed according to a method which uses jetPEI (trade name, manufactured by Funakoshi Co., Ltd., Tokyo, Japan). Furthermore, β-galactosidase expression vector was employed as an internal standard.
After the transfection of the cells, the medium was replaced with a DMEM medium (containing 1% serum) added with the compound, and the cells were further cultured for 16 hours. After that, the luciferase activity and β-galactosidase activity in the cell lysis solution were measured.
For the present test, dimethyl sulfoxide (DMSO) was used for dissolution and dilution of the test compounds, and during the cell treatment, the DMSO concentration in DMEM medium (containing 1% serum) was adjusted to 0.1%. As a positive compound, rosiglitazone (trade name, manufactured by ALEXIS Corporation, Switzerland) was used. […] The 50% effective concentration of the test compound (EC50, 50% effect concentration) was calculated by using SAS Preclinical Package Ver5.0 (trade name, manufactured by SAS institute Japan Co., Tokyo, Japan), which is a statistical analysis program.
Background: A reporter such as luciferase makes a cellular process visible.

Assay [1] concerns the target T2, angiotensin II type 1 receptor (Oryctolagus cuniculus, UniProt P34976).
T2 construct: By using a specimen of isolated rabbit blood vessels; from tissue; host or cells: rabbit thoracic aorta ring (New Zealand White, male)
T2 sequence (P34976 1-359): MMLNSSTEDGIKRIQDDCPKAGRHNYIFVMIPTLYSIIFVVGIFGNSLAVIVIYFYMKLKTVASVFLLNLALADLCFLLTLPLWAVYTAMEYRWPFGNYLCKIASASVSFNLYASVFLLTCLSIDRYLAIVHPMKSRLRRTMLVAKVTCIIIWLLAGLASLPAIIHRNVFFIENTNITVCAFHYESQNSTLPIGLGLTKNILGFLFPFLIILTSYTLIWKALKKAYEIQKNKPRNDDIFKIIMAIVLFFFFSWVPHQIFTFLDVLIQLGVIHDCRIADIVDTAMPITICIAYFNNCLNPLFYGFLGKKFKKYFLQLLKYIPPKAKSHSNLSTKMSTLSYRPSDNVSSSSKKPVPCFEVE
Put plainly: Angiotensin II antagonistic activity in isolated rabbit blood vessels. To be noted: angiotensin II (10 nM)-induced contraction of rabbit thoracic aorta ring. The method, then: By using a specimen of isolated rabbit blood vessels, antagonistic activity of the compounds of the invention against angiotensin II type 1 receptor was estimated from a dose-response curve of angiotensin II-induced blood vessel contraction.
During the measurement, the inside temperature of the magnus bath was maintained at 37° C. and the bath was continuously ventilated with a sufficient amount of mixed gas (95% O2 and 5% CO2). The angiotensin II-induced contraction was converted into a relative value (%) that is based on the angiotensin II (10 nM)-induced contraction in the absence of the compounds of each example. From the concentration-response curve obtained therefrom, 50% inhibition concentration (IC50 value) was calculated by using SAS Preclinical Package Ver5.0 (trade name, manufactured by SAS institute Japan Co., Tokyo, Japan), which is a statistical analysis program.

A word on the EC50: it is the midpoint of the concentration-response curve. By IC50 is commonly meant the midpoint of a concentration-inhibition curve. A high value points to weaker potency in that assay.

Read-outs that look alike come from different tables or passages of the source.

T1 sequence (P37231 182-505): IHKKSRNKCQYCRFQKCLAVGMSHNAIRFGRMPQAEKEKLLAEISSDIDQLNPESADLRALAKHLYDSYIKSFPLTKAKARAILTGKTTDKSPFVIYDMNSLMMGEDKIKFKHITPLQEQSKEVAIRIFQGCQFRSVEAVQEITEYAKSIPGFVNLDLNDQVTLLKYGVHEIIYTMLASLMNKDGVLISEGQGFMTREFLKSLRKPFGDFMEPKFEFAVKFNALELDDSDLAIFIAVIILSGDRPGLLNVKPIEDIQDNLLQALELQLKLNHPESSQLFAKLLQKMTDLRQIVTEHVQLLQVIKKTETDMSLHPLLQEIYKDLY
T1 sequence (P04386 1-147 partner limits assumed): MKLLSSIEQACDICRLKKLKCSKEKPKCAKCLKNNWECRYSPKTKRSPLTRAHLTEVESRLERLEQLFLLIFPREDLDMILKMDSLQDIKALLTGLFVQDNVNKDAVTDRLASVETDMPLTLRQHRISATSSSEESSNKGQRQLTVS

As for `CCCCc1nc(C)n(-c2ccc(C)cn2)c(=O)c1Cc1ccc(-c2ccccc2-c2nnn[nH]2)cc1` [Example 2, 5-{[2′-(1H-tetrazol-5-yl)biphenyl-4-yl]methyl}-6-butyl-2-methyl-3-(5-methylpyridin-2-yl)pyrimidin-4(3H)-one], the EC50 on human PPARγ2 (COS7 cells, read-out: EC50) came to 4.15 µM. Further, on human PPARγ2 (COS7 cells), the Emax amounted to 24.1%. Further, in assay [1], the IC50 was 0.084 µM.
`CCCCc1nc(C)n(-c2ccc(OC)cn2)c(=O)c1Cc1ccc(-c2ccccc2-c2nnn[nH]2)cc1` [Example 3, 5-{[2′-(1H-tetrazol-5-yl)biphenyl-4-yl]methyl}-6-butyl-3-(5-methoxypyridin-2-yl)-2-methylpyrimidin-4(3H)-one]: the EC50 at human PPARγ2 (COS7 cells, read-out: EC50) amounted to 3.74 µM. The IC50 in assay [1] worked out at 0.018 µM.
In the same order, the values of `CCCCc1nc(C)n(-c2ncccc2F)c(=O)c1Cc1ccc(-c2ccccc2-c2nnn[nH]2)cc1` [Example 4, 5-{[2′-(1H-tetrazol-5-yl)biphenyl-4-yl]methyl}-6-butyl-3-(3-fluoropyridin-2-yl)-2-methylpyrimidin-4(3H)-one] are 1.44 µM and 0.06 µM.
With `CCCCc1nc(C)n(-c2ccc(F)cn2)c(=O)c1Cc1ccc(-c2ccccc2-c2nnn[nH]2)cc1` [Example 5, 5-{[2′-(1H-tetrazol-5-yl)biphenyl-4-yl]methyl}-6-butyl-3-(5-fluoropyridin-2-yl)-2-methylpyrimidin-4(3H)-one], the concentration for a half-maximal effect (EC50) on human PPARγ2 (COS7 cells, read-out: EC50) is 3.66 µM. Also, the Emax at human PPARγ2 (COS7 cells) came to 27.6%. In assay [1], this compound returned an IC50 of 0.102 µM.
`CCCCc1nc(C)n(-c2ncccc2Cl)c(=O)c1Cc1ccc(-c2ccccc2-c2nnn[nH]2)cc1` [Example 6, 5-{[2′-(1H-tetrazol-5-yl)biphenyl-4-yl]methyl}-6-butyl-3-(3-chloropyridin-2-yl)-2-methylpyrimidin-4(3H)-one]: at human PPARγ2 (COS7 cells, read-out: EC50), the EC50 turned out to be 1.69 µM. In addition, at human PPARγ2 (COS7 cells), the Emax amounted to 20.3%. Moreover, the IC50 in assay [1] was 0.024 µM.
Regarding `CCCCc1nc(C)n(-c2ccc(Cl)cn2)c(=O)c1Cc1ccc(-c2ccccc2-c2nnn[nH]2)cc1` [Example 7, 5-{[2′-(1H-tetrazol-5-yl)biphenyl-4-yl]methyl}-6-butyl-3-(5-chloropyridin-2-yl)-2-methylpyrimidin-4(3H)-one], the EC50 at human PPARγ2 (COS7 cells, read-out: EC50) stood at 1.52 µM. The Emax at human PPARγ2 (COS7 cells) is 54.6%. On human PPARγ2, the “maximum activity compared with telmisartan” value is reported as “the same or greater than that of telmisartan”. Besides, in assay [1], the IC50 came to 0.431 µM.
As to `CCCCc1nc(C)n(-c2cccc(Br)n2)c(=O)c1Cc1ccc(-c2ccccc2-c2nnn[nH]2)cc1` [Example 8, 5-{[2′-(1H-tetrazol-5-yl)biphenyl-4-yl]methyl}-3-(6-bromopyridin-2-yl)-6-butyl-2-methylpyrimidin-4(3H)-one], the EC50 on human PPARγ2 (COS7 cells, read-out: EC50) was found to be 0.88 µM. In addition, on human PPARγ2 (COS7 cells), the Emax came out at 27.7%. The compound further returned an IC50 in assay [1] of 0.395 µM.
In the case of `CCCCc1nc(C)n(-c2cc(C(F)(F)F)ccn2)c(=O)c1Cc1ccc(-c2ccccc2-c2nnn[nH]2)cc1` [Example 10, 5-{[2′-(1H-tetrazol-5-yl)biphenyl-4-yl]methyl}-6-butyl-2-methyl-3-[4-(trifluoromethyl)pyridin-2-yl]pyrimidin-4(3H)-one], the EC50 at human PPARγ2 (COS7 cells, read-out: EC50) turned out to be 3.89 µM. For the same compound, the IC50 in assay [1] came out at 0.181 µM.
`CCCCc1nc(C)n(-c2ncc(OCCCC(=O)NCCC)cn2)c(=O)c1Cc1ccc(-c2ccccc2-c2nnn[nH]2)cc1` [Example 50, 4-{2-{5-{[2′-(1H-tetrazol-5-yl)biphenyl-4-yl]methyl}-4-butyl-2-methyl-6-oxopyrimidin-1(6H)-yl}pyrimidin-5-yloxy}-N-propylbutanamide] came in with an IC50 in assay [1] of 0.014 µM.
Same read-out and setting: with `CCCCc1nc(C)n(-c2ncc(OCCCC(=O)NC(C)C)cn2)c(=O)c1Cc1ccc(-c2ccccc2-c2nnn[nH]2)cc1` [Example 51, 4-{2-{5-{[2′-(1H-tetrazol-5-yl)biphenyl-4-yl]methyl}-4-butyl-2-methyl-6-oxopyrimidin-1(6H)-yl}pyrimidin-5-yloxy}-N-isopropylbutanamide] the figure was 0.0058 µM.
Still for that read-out and setting: with `CCCCc1nc(C)n(-c2ncc(OCCCCC(N)=O)cn2)c(=O)c1Cc1ccc(-c2ccccc2-c2nnn[nH]2)cc1` [Example 53, 5-{2-{5-{[2′-(1H-tetrazol-5-yl)biphenyl-4-yl]methyl}-4-butyl-2-methyl-6-oxopyrimidin-1(6H)-yl}pyrimidin-5-yloxy}pentanamide] the figure was 0.0085 µM.
Same read-out and setting: with `CCCCc1nc(C)n(-c2ncc(OCCCCC(=O)NCC)cn2)c(=O)c1Cc1ccc(-c2ccccc2-c2nnn[nH]2)cc1` [Example 54, 5-{2-{5-{[2′-(1H-tetrazol-5-yl)biphenyl-4-yl]methyl}-4-butyl-2-methyl-6-oxopyrimidin-1(6H)-yl}pyrimidin-5-yloxy}-N-ethylpentanamide] the figure was 0.025 µM.
Compound `CCCCc1nc(C)n(-c2ncc(OCCCCC(=O)N(CC)CC)cn2)c(=O)c1Cc1ccc(-c2ccccc2-c2nnn[nH]2)cc1` [Example 55, 5-{2-{5-{[2′-(1H-tetrazol-5-yl)biphenyl-4-yl]methyl}-4-butyl-2-methyl-6-oxopyrimidin-1(6H)-yl}pyrimidin-5-yloxy}-N,N-diethylpentanamide] came in with an IC50 in assay [1] below 0.1 µM.
Same read-out and setting: with `CCCCc1nc(C)n(-c2ncc(OCCCNC(C)=O)cn2)c(=O)c1Cc1ccc(-c2ccccc2-c2nnn[nH]2)cc1` [Example 56, N-{3-{2-{5-{[2′-(1H-tetrazol-5-yl)biphenyl-4-yl]methyl}-4-butyl-2-methyl-6-oxopyrimidin-1 (6H)-yl}pyrimidin-5-yloxy}propyl}acetamide] the figure was 0.0024 µM; with `CCCCc1nc(C)n(-c2ncc(OCCCNS(C)(=O)=O)cn2)c(=O)c1Cc1ccc(-c2ccccc2-c2nnn[nH]2)cc1` [Example 57, N-{3-{2-{5-{[2′-(1H-tetrazol-5-yl)biphenyl-4-yl]methyl}-4-butyl-2-methyl-6-oxopyrimidin-1(6H)-yl}pyrimidin-5-yloxy}propyl}methane sulfonamide], 0.0036 µM; with `CCCCc1nc(C)n(-c2cnccn2)c(=O)c1Cc1ccc(-c2ccccc2-c2nnn[nH]2)cc1` [Example 60, 5-{[2′-(1H-tetrazol-5-yl)biphenyl-4-yl]methyl}-6-butyl-2-methyl-3-(pyrazin-2-yl)pyrimidin-4 (3H)-one], 0.0081 µM.
Still for that read-out and setting: as for `CCCCc1nc(C)n(-c2nnc(C)c(C)n2)c(=O)c1Cc1ccc(-c2ccccc2-c2nnn[nH]2)cc1` [Example 61, 5-{[2′-(1H-tetrazol-5-yl)biphenyl-4-yl]methyl}-6-butyl-3-(5,6-dimethyl-1,2,4-triazin-3-yl)-2-methylpyrimidin-4 (3H)-one], the figure is 0.025 µM.
Turning to `CCCCc1nc(C)n(-c2ncn(C)n2)c(=O)c1Cc1ccc(-c2ccccc2-c2nnn[nH]2)cc1` [Example 65, 5-{[2′-(1H-tetrazol-5-yl)biphenyl-4-yl]methyl}-6-butyl-2-methyl-3-(1-methyl-1H-1,2,4-triazol-3-yl)pyrimidin-4 (3H)-one], the IC50 in assay [1] worked out at 0.023 µM.
With `CCCCc1nc(C)n(-c2nc3ccccc3s2)c(=O)c1Cc1ccc(-c2ccccc2-c2nnn[nH]2)cc1` [Example 70, 5-{[2′-(1H-tetrazol-5-yl)biphenyl-4-yl]methyl}-3-(benzothiazol-2-v1)-6-butyl-2-methylpyrimidin-4 (3H)-one], the EC50 at human PPARγ2 (COS7 cells, read-out: EC50) amounted to 0.69 µM. Besides, the Emax at human PPARγ2 (COS7 cells) was found to be 39.7%. Further, the “maximum activity compared with telmisartan” value at human PPARγ2 is recorded as “the same or greater than that of telmisartan”.
Take `CCCc1nc2c(C)cc(-c3nc4ccccc4n3C)cc2n1Cc1ccc(-c2ccccc2C(=O)O)cc1` [telmisartan, reference compound]: the Emax at human PPARγ2 (COS7 cells) was in the range of 30 to 50%. The compound also came in with an EC50 at human PPARγ2 (EC50, COS7 cells) of 1 to 5 µM.
